US20110028566A1, “COMPOSITIONS AND PRODUCTS CONTAINING CYCLOALIPHATIC DIOL ANTIMICROBIAL AGENTS AND METHODS OF USING THE COMPOSITIONS AND PRODUCTS” (EASTMAN CHEMICAL COMPANY, priority 2009, published 2011)

Tested on: trivalent bacterial-fungal inocula
Experiment: 15-day biofouling control in B-100 biodiesel:Bushnell-Haas broth, visual turbidity
Type: cell-based
Parameters: key: 0 = No Growth; 1 = Slight Growth; 2 = Moderate Growth; 3 = Heavy Growth
Settings: biocide 0 mg/L, 15 days, 22° C., trivalent inoculum 50 uL
Experimental: Antimicrobial efficacy data (Table 54 & Table 55) were obtained for 1,4-CHDM with and without biocide in protection of B-100 biodiesel from microbial growth derived via either biodiesel-acclimated bioslime or trivalent bacterial-fungal inocula after 15-day exposure at 22° C. This testing was via a visual turbidity methodology. Neither micro-liter plates nor automatic plate reader could be used in this experiment due to the inherent biphasic nature of the system. B-100 biodiesel:Bushnell-Haas broth was used, which is a minimal salts medium specially designed for evaluating growth of microorganisms on hydrocarbons. Samples were evaluated visually (i.e., the more the turbidity, the more the growth, the less the turbidity, the less the growth, and no turbidity means no growth).

Measured: Growth (visual turbidity rating)

OCC1CCC(CO)CC1 (centres unmarked) [1,4-CHDM, 1,4-cyclohexanedimethanol]
3: 1,4-CHDM 0.1% (v/v) | 1,4-CHDM 0.2% (v/v) | 1,4-CHDM 0.3% (v/v) | 1,4-CHDM 0.4% (v/v) | 1,4-CHDM 0.5% (v/v)
